Experimental findings from patent US7649007B2, “Oxazolidine derivatives as PR modulators” (Wyeth LLC, priority 2006, dated 2010) are described below.

pIC50: −log10 of the molar value.

Series [1] addresses T1, progesterone receptor (alkaline phosphatase activity in T47D cells) (Homo sapiens, UniProt P06401).
T1 construct: determining a compound's effect on alkaline phosphatase activity in T47D cells; endogenous in cells; host or cells: T47D cells
T1 sequence (P06401 1-933): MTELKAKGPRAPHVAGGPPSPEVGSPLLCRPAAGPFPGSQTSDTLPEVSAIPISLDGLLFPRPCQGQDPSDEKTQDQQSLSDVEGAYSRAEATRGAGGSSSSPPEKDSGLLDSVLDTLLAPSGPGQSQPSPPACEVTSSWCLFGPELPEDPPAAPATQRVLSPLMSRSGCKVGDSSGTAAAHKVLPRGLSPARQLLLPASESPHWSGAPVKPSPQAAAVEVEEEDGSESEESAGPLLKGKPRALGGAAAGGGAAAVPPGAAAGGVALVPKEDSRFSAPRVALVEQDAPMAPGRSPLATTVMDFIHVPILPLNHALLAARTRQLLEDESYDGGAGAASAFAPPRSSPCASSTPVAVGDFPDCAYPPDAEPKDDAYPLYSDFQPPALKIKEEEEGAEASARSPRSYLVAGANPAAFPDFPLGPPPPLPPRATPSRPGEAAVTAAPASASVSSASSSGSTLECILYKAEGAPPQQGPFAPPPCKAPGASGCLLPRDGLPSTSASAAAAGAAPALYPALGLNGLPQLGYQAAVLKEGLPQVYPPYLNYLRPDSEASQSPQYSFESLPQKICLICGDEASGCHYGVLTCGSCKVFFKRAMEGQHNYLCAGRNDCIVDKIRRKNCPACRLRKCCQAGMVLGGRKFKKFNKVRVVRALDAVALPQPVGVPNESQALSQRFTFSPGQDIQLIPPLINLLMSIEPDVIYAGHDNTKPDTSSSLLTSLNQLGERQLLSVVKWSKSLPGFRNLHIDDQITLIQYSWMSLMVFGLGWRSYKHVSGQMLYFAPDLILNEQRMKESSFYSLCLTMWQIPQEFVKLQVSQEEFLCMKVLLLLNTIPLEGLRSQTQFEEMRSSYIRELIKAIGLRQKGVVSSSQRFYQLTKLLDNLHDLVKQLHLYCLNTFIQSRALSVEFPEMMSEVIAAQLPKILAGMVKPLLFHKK
Put plainly: Effects of progestins and antiprogestins on alkaline phosphatase activity in T47D cells (antagonist mode). Type of series: cell-based. As to conditions: in the presence of 1 nM progesterone; for pIC50: 24 h. As to the method: (1) Effects of Progestins and Antiprogestins on Alkaline Phosphatase Activity in T47D Cells.
PURPOSE: To identify progestins or antiprogestins by determining a compound's effect on alkaline phosphatase activity in T47D cells.
Culture medium: • DMEM:F12 (1:1) (GIBCO, BRL) supplemented with 5% (v/v) charcoal stripped fetal bovine serum (not heat-inactivated), 100 U/mL penicillin, 100 μg/mL streptomycin, and 2 mM the GlutaMax™ reagent (GIBCO, BRL).
Alkaline phosphatase assay buffer: • I. 0.1M Tris-HCl, pH 9.8, containing 0.2% the Triton® X-100 reagent • II. 0.1M Tris-HCl, pH 9.8, containing 4 mM p-nitrophenyl phosphate (Sigma). B. Cell Culture and Treatment:
Frozen T47D cells were thawed in a 37° C. water bath and diluted to 280,000 cells/mL in culture medium. To each well in a 96-well plate (Falcon, Becton Dickinson Labware), 180 μL of diluted cell suspension was added.
Twenty μL of reference or test compounds diluted in the culture medium was then added to each well. When testing for progestin antagonist activity, reference antiprogestins or test compounds were added in the presence of 1 nM progesterone. The cells were incubated at 37° C. in a 5% CO2/humidified atmosphere for 24 h.
NOTE: For high throughput screening, one concentration of each compound was tested at 0.3 μg/mL. Based on an average molecular weight of 300 g/mol for the compounds in the library, the concentration was approximately 1 μM. Subsequently, active compounds were tested in dose response assays to determine EC50 and IC50. C. Alkaline Phosphatase Enzyme Assay:
At the end of treatment, the medium was removed from the plate. Fifty μL of assay buffer I was added to each well. The plates were shaken in a titer plate shaker for 15 min. Then 150 μL of assay buffer II was added to each well. Optical density measurements were taken at 5 min intervals for 30 min at a test wavelength of 405 nm.
For reference and test compounds, a dose response curve was generated for dose (X-axis) vs. the rate of enzyme reaction (slope) (Y-axis). Square root-transformed data was used for analysis of variance and nonlinear dose response curve fitting for both agonist and antagonist modes. Huber weighting was used to down-weight the effects of outliers. EC50 or IC50 values were calculated from the retransformed values. JMP software (SAS Institute, Inc.) was used for both one-way analysis of variance and non-linear dose response analysis in both single dose and dose response studies.
Progesterone and trimegestone were reference progestins and RU486 was the reference antiprogestin. All reference compounds were run in full dose response curves and the EC50 and IC50 values were calculated.

`C[C@@H]1COC(=O)N1c1nc(-c2ccc(Br)cc2)cs1` [Example 1, (4R)-3-[4-(4-Bromophenyl)-1,3-thiazol-2-yl]-4-methyl-1,3-oxazolidin-2-one] showed a melting point of 197 to 199 °C.
`CC1(C)COC(=N)N1c1nc(-c2ccc(C#N)cc2)cs1` [Example 4, 4-[2-(2-imino-4,4-dimethyl-1,3-oxazolidin-3-yl)-1,3-thiazol-4-yl]benzonitrile] gave a melting point of 158 to 161 °C. Moreover, the negative logarithm of the IC50 (pIC50) in series [1] is 7.27.
The compound `CC1(C)COC(=O)N1c1nc(-c2cccc(C#N)c2)cs1` [Example 3, 3-[2-(4,4-dimethyl-2-oxo-1,3-oxazolidin-3-yl)-1,3-thiazol-4-yl]benzonitrile] came in with a melting point of 181 to 183 °C.
Regarding `CC1(C)CO/C(=N\S(C)(=O)=O)N1c1nc(-c2ccc(C#N)cc2)cs1` [Example 6, N-{(2Z)-3-[4-(4-Cyanophenyl)-1,3-thiazol-2-yl]-4,4-dimethyl-1,3-oxazolidin-2-ylidene}methanesulfonamide], the inhibition at 3 µM in series [1] (at 3000 nM) was 100%.
In the case of `CC(=O)/N=C1\OCC(C)(C)N1c1nc(-c2ccc(C#N)cc2)cs1` [Example 7, N-{(2Z)-3-[4-(4-Cyanophenyl)-1,3-thiazol-2-yl]-4,4-dimethyl-1,3-oxazolidin-2-ylidene}acetamide], the negative logarithm of the IC50 (pIC50) in series [1] is 7.97.
The same measure, in the same setting: under `CC1(C)CO/C(=N\C#N)N1c1nc(-c2ccc(C#N)cc2)cs1` [Example 5, {(2Z)-3-[4-(4-cyanophenyl)-1,3-thiazol-2-yl]-4,4-dimethyl-1,3-oxazolidin-2-ylidene}cyanamide] stands 7.19.
For `CCC1(CC)COC(=O)N1c1nc(-c2ccc(C#N)cc2)cs1` [Example 2, 4-[2-(4,4-Diethyl-2-oxo-1,3-oxazolidin-3-yl)-1,3-thiazol-4-yl]benzonitrile], the melting point fell in the range of 145 to 147 °C.

What is called melting point is the temperature of the solid-liquid transition. By pIC50 is commonly meant −log10 of the IC50, conventionally taken in molar units. By inhibition is commonly meant the change of the read-out against control, counted positive when it falls.
